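1) Cells in 96-well plates. 2) Compound, 48 h, 5 concentrations. 3) Linear interpolation between surrounding doses. 4) Unreached endpoint = highest concentration. Definition used: TGI = concentration required for complete inhibition of growth.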
How the values were obtained:
Assay in all cases: DTP human tumour cell line panel, 48 h
[1] = test system: UACC-257 melanoma
[2] = test system: UACC-62 melanoma
[3] = test system: HCT-116 colon
[4] = test system: HCC-2998 colon
[5] = test system: SK-MEL-2 melanoma
[6] = test system: OVCAR-3 ovarian
[7] = test system: SK-MEL-28 melanoma
[8] = test system: SW-620 colon
[9] = test system: MALME-3M melanoma
[10] = test system: NCI/ADR-RES ovarian
[11] = test system: SR leukemia
[12] = test system: RXF 393 renal
[13] = test system: HL-60(TB) leukemia
[14] = test system: SF-295 CNS
[15] = test system: SN12C renal
[16] = test system: CAKI-1 renal
[17] = test system: NCI-H460 lung
[18] = test system: T-47D breast

SMILES | TGI [1] | TGI [2] | TGI [3] | TGI [4] | TGI [5] | TGI [6] | TGI [7] | TGI [8] | TGI [9] | TGI [10] | TGI [11] | TGI [12] | TGI [13] | TGI [14] | TGI [15] | TGI [16] | TGI [17] | TGI [18]
CC(C)(C)OC(=O)CN1C(=O)CC1CC(=O)c1ccccc1 (stereo not drawn) | 35.2 µM | 41.3 µM | 49.7 µM | 63.2 µM | 32.2 µM | 33.5 µM | 36.7 µM | 31.6 µM | 31.9 µM | > 100 µM | 19.1 µM | 43.5 µM | 47.9 µM | 73.8 µM | 51.1 µM | 49.4 µM | 77.1 µM | 
O=c1oc2ccccc2cc1-c1csc(Nc2ccc(F)cc2)n1 | > 52 µM | 43.9 µM | 5.65 µM | 17.1 µM | 39.2 µM | 19.6 µM | 6.6 µM | 15.3 µM |  | 13 µM |  | 28.2 µM | 35.3 µM | 10.7 µM | 10.1 µM | 10.6 µM | 22.3 µM | 10.7 µM
CCOC(=O)N(NC(=O)NC(C)C)c1ccccc1 | > 100 µM | > 100 µM | > 100 µM | > 100 µM | > 100 µM | > 100 µM | > 100 µM | > 100 µM | > 100 µM | > 100 µM | > 100 µM | > 100 µM | > 100 µM | > 100 µM | > 100 µM | > 100 µM | > 100 µM | 
NCCCCC(NC(=O)C(N)Cc1ccc(O)cn1)C(=O)O (stereo not drawn) | > 100 µM |  | > 100 µM | > 100 µM |  | > 100 µM | > 100 µM | > 100 µM | > 100 µM | > 100 µM | > 100 µM | > 100 µM | > 100 µM | > 100 µM | > 100 µM | > 100 µM | > 100 µM | 
CCOC(=O)/C(=C\c1ccccc1)C(=O)O | > 100 µM | > 100 µM | > 100 µM | > 100 µM | > 100 µM | > 100 µM | > 100 µM | > 100 µM | > 100 µM |  | > 100 µM |  | > 100 µM | > 100 µM | > 100 µM | > 100 µM | > 100 µM | 
O=[N+]([O-])c1ccc2c(c1)S(=O)(=O)N1Cc3ccccc3CCN21 | > 100 µM | > 100 µM | > 100 µM | > 100 µM | > 100 µM | > 100 µM | > 100 µM | > 100 µM | > 100 µM | > 100 µM | > 100 µM | > 100 µM | > 100 µM | > 100 µM | > 100 µM | > 100 µM | > 100 µM | 
Cc1cccc(C(C)C)c1NC(=O)/C(Cc1c([N+](=O)[O-])cccc1[N+](=O)[O-])=N/NC(=O)CC#N |  | > 100 µM | > 100 µM | > 100 µM | > 100 µM | > 100 µM | > 100 µM | > 100 µM | > 100 µM |  |  | > 100 µM | > 100 µM | > 100 µM |  | > 100 µM | > 100 µM | 
O=c1[nH]c(=O)n(CCOc2ccccc2)cc1Nc1ccccc1 | > 100 µM | > 100 µM | > 100 µM | > 100 µM |  | > 100 µM | > 100 µM | > 100 µM | > 100 µM | > 100 µM | > 100 µM | > 100 µM |  | > 100 µM | > 100 µM | > 100 µM | > 100 µM | 
CC(=O)N(C(C)=O)n1c(Cc2ccc(Cl)cc2)n[nH]c1=O | > 100 µM | > 100 µM | > 100 µM | > 100 µM | > 100 µM | > 100 µM | > 100 µM | > 100 µM | > 100 µM | > 100 µM | > 100 µM | > 100 µM | > 100 µM | > 100 µM | > 100 µM | > 100 µM | > 100 µM | 
O=C(CCN(C(=O)O)S(=O)(=O)c1ccc(NC(=O)c2ccccc2)cc1)NC1CCCCC1 | > 100 µM | > 100 µM | > 100 µM | > 100 µM | > 100 µM | > 100 µM | > 100 µM | 33.1 µM | > 100 µM |  | > 100 µM |  | 94.6 µM | > 100 µM | > 100 µM | > 100 µM | > 100 µM | 
O=C1NC(=O)C(CCC(=O)c2ccc3ccccc3c2)C(=O)N1 | > 100 µM | > 100 µM | > 100 µM | > 100 µM | > 100 µM | > 100 µM | > 100 µM | > 100 µM | > 100 µM |  | > 100 µM | > 100 µM | > 100 µM | > 100 µM | > 100 µM | > 100 µM | > 100 µM | 

From PubChem BioAssay (NCI)
